Assay [1] has as its target T1, 5-hydroxytryptamine receptor 1A (Rattus norvegicus, UniProt P19327).
T1 sequence (P19327 whole entry): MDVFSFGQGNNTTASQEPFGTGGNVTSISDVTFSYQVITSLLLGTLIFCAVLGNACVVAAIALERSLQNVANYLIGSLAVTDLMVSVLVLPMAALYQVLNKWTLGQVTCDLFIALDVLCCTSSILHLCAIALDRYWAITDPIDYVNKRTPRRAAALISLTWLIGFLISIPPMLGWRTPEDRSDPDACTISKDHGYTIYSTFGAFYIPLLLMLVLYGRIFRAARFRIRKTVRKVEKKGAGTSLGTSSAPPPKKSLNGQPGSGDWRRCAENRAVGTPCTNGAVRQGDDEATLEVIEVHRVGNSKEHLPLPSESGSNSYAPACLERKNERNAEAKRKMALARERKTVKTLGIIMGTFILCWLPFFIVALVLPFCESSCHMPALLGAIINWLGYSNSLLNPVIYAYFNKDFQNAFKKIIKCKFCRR
As to the kind of experiment: The binding affinity by measuring its ability to displace [3H]8-OH-DPAT radioligand in 5-hydroxytryptamine 1A receptor on rat hippocampal preparation. In kind it is tissue-based, Hippocampus.

Assay [2] addresses D(3) dopamine receptor (Homo sapiens, UniProt P35462). As to the kind of experiment: biochemical.
Description: Binding affinity determined by measuring displacement of [3H]spiperone from cloned Human Dopamine receptor D3 in CHO-K1 cells
The target of assay [3] is T2, D(2) dopamine receptor (Homo sapiens, UniProt P14416). As to the kind of experiment: biochemical.
Description: Binding affinity determined by measuring its ability to displace [3H]N-0437 radioligand in CHO-K1 cells on Cloned Human Dopamine receptor D2
In assay [4] the test system is Rattus norvegicus. As to the kind of experiment: In vivo DA d2 activity determined by measuring effects on DA synthesis by observing the changes in accumulation of (DOPA) after administration of a 10 mg/kg ip. In kind it is functional. The note with it: route intraperitoneal.
Assay [5] addresses T2, D(2) dopamine receptor. As to the kind of experiment: Percentage intrinsic activity measured at DA D2 receptor by measuring its ability to […] [3H]-thymidine uptake in CHO-K1 cells transfected with the Dopamine receptor D2. In kind it is cell-based.
Assay [6] concerns Rattus norvegicus. The assay is described as follows: The inhibited exploratory locomotor activity of compound in rat after oral administration. In kind it is functional.
The target in assay [7] is T2, D(2) dopamine receptor. The assay is described as follows: The in vitro intrinsic activity was measured at DA D2 receptor by measuring its ability to increase [3H]thymidine uptake in CHO-K1 cells transfected with the Dopamine receptor D2. In kind it is cell-based.
The subject of assay [8] is Mus musculus. The assay is described as follows: The inhibited exploratory locomotor activity of compound in mice after ip administration. In kind it is functional.
Assay [9] concerns Rattus norvegicus. As to the kind of experiment: The % decrease of rat striatal 5-HIAA overflow at the dose of 10 mg/kg through ip. In kind it is functional.
The test system of assay [10] is Rattus norvegicus. The assay is described as follows: The % decrease of rat striatal dopamine overflow at the dose of 10 mg/kg through ip. In kind it is functional.
Assay [11] is described as follows: The inhibition of Sidman avoidance responding of compound in squirrel monkeys after oral administration.
Assay [12] concerns Rattus norvegicus. The assay is described as follows: In vivo DA D2 activity determined by measuring effects on DA synthesis by observing the changes in accumulation of (DOPA) after administration of a 10 mg/kg ip. In kind it is functional. The note with it: route intraperitoneal.
For assay [13], the target named is 5-hydroxytryptamine receptor 1A (Rattus norvegicus) (UniProt P19327). As to the kind of experiment: Intrinsic agonist activity at 5-HT1A receptors was measured in vivo by measuring changes in 5-HT levels after administration of compound by observing accumulation of the 5-HT […] 5-hydroxytryptophan (5-HTP) after administration of a 10 mg/k g ip.

Results on 25 compounds are retold here after ChEMBL document CHEMBL1131565, “Aminopyrimidines with high affinity for both serotonin and dopamine receptors” (J Med Chem, 1998).

Structures are written as SMILES.

T2 sequence (P14416 whole entry): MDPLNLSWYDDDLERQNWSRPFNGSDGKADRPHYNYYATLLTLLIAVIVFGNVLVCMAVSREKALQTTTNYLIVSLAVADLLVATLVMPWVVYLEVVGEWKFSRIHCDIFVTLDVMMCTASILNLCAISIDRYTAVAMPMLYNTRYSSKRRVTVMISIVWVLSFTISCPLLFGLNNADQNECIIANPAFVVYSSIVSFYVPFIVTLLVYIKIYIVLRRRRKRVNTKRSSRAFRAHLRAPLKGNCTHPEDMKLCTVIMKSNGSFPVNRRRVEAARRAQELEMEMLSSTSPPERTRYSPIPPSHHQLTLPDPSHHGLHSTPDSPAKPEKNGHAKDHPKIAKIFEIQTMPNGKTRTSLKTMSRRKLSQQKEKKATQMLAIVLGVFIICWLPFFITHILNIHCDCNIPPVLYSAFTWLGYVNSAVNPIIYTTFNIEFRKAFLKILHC
Sequence of D(3) dopamine receptor (P35462 whole entry): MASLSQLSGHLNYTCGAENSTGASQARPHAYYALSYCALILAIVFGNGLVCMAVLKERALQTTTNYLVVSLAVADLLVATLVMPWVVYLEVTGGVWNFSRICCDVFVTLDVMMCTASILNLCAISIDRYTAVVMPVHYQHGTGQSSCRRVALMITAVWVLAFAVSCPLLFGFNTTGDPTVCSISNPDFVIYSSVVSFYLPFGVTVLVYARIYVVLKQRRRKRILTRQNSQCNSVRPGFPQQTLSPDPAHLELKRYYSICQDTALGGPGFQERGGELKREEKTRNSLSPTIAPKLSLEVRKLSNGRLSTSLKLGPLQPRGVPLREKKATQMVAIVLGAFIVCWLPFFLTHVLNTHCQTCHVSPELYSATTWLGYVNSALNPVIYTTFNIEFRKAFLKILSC

For the compound `c1ccc(N2CCN(C3CCC(Nc4ncccn4)CC3)CC2)cc1` (stereo in doubt; 20), the results for the inhibitory constant (Ki) in assay [1], in assay [2] and in assay [3] were 83 nM, 610 nM and 320 nM, respectively.
On to `c1cnc(N[C@H]2CC[C@H](CCN3CCN(c4cnccn4)CC3)CC2)nc1`, for which the Ki in [1] stood at 29 nM; in [2], 210 nM; in assay [3] it was 180 nM.
With `c1cnc(N[C@H]2CC[C@H](CCN3CCN(c4nccs4)CC3)CC2)nc1`, the Ki came to 10 nM in assay [1] and 46 nM in assay [3].
Take `Clc1cccc(N2CCN(CC[C@H]3CC[C@H](Nc4ncccn4)CC3)CC2)c1Cl`: the Ki in [1] stood at 76 nM; in assay [2] it was 5 nM; in [3], 11 nM.
Regarding `c1ccc(N2CCN(C3CCC(Nc4ncccn4)CC3)CC2)cc1` (stereo in doubt; 19), the Ki in assay [1] was 470 nM; in assay [2], 550 nM; in assay [3], 160 nM.
In the case of `C1=C(c2ccccc2)CCN(CC[C@H]2CC[C@H](Nc3ncccn3)CC2)C1`, the Ki is 3.9 nM in assay [1], 3.7 nM in [2] and 4.7 nM in assay [3].
Turning to `c1ccc(N2CCN(CC[C@H]3CC[C@H](Nc4ncccn4)CC3)CC2)nc1`, the Control in assay [4] was determined as 159%. Also, the Ki in assay [1] is 2.2 nM; in [2], 26 nM. This compound registered an Intrinsic activity in assay [5] of 41%.
As to `CN(c1ncccn1)[C@H]1CC[C@H](CCN2CCN(c3ccccc3)CC2)CC1`, the Ki in [1] is 4.7 nM; in assay [2] it was 24 nM; in assay [3] it was 4.8 nM.
For `c1ccc(N2CCN(CC[C@H]3CC[C@H](Nc4ncccn4)CC3)CC2)cc1`, the results for the ED50 in [6], in assay [8] and in assay [11] were 4.6 mg/kg, 0.4 mg/kg and 0.28 mg/kg, respectively. This compound also displayed an EC50 in [7] of 29 nM. Besides, the results for the Decrease in assay [9] and in assay [10] were 42% and 50%, respectively. The inhibitory constant (Ki) in assay [1] came out at 3.5 nM; in assay [2], 13.7 nM; in assay [3], 5.2 nM. Further, the Intrinsic activity in [5] was 60%. Besides, the Control in [12] was 67%.
In assay [1], `O=C(N[C@H]1CC[C@H](CCN2CCN(c3ccccc3)CC2)CC1)c1cccs1` displayed a Ki of 57 nM.
`COc1ccc(N2CCN(CC[C@H]3CC[C@H](Nc4ncccn4)CC3)CC2)cc1`: the values for the inhibition constant (Ki) in [1], in assay [2] and in assay [3] were 160 nM, 52 nM and 390 nM, respectively.
For `COc1ccccc1N1CCN(CC[C@H]2CC[C@H](Nc3ncccn3)CC2)CC1`, in assay [7], the IC50 amounted to 9.9 nM. In addition, the Ki in assay [1] stood at 0.5 nM; in assay [2] it was 11 nM; in assay [3] it was 3 nM. Moreover, the results for the Control in assay [13] and in [12] were 128% and 173%, respectively. This compound also had an Intrinsic activity in assay [5] of 8%.
As to `O=C(N[C@H]1CC[C@H](CCN2CCN(c3ccccc3)CC2)CC1)C1CCCCC1`, in assay [1], the affinity corresponds to a Ki of 5300 nM.
As to `Fc1ccc(N2CCN(CC[C@H]3CC[C@H](Nc4ncccn4)CC3)CC2)cc1`, in [7], inhibition was half-maximal at 79 nM (IC50). Besides, the Control in assay [4] was determined as 142%; in assay [13], 143%. Moreover, the inhibition constant (Ki) was 4.5 nM in [1], 48 nM in assay [2] and 8.5 nM in assay [3]. In addition, the Intrinsic activity in assay [5] was determined as 5%.
Take `FC(F)(F)c1cccc(N2CCN(CC[C@H]3CC[C@H](Nc4ncccn4)CC3)CC2)c1`: the values for the Ki in [1], in assay [2] and in assay [3] were 13 nM, 32 nM and 6 nM, respectively.
In the same order, the values of `c1cnc(N[C@H]2CC[C@H](CCN3CCc4ccccc4C3)CC2)nc1` are 44 nM, 40 nM and 110 nM.
The matching figures for `c1ccc(N2CCN(CCC[C@H]3CC[C@H](Nc4ncccn4)CC3)CC2)cc1`: 16 nM, 54 nM and 7.4 nM.
In the same order, the values of `c1cnc(N[C@H]2CC[C@H](CCN3CCN(c4ncccn4)CC3)CC2)nc1` are 8.6 nM, 590 nM and 240 nM.
For `CN(CCc1ccccc1)CC[C@H]1CC[C@H](Nc2ncccn2)CC1`, the Ki in [1] came out at 91 nM; in [3], 39 nM.
Take `c1cnc(N[C@H]2CC[C@H](CCN3CCN(c4ccncc4)CC3)CC2)nc1`: the inhibition constant (Ki) came out at 730 nM in assay [1], 2300 nM in assay [2] and 4800 nM in assay [3].
With `CCCN(CCC)CC[C@H]1CC[C@H](Nc2ncccn2)CC1`, the inhibitory constant (Ki) in [2] amounted to 800 nM; in [3], 2400 nM.
With `c1cnc(N[C@H]2CC[C@H](CCN3CCN(c4cccnc4)CC3)CC2)nc1`, the Ki turned out to be 9.5 nM in assay [1], 4.7 nM in assay [2] and 25 nM in [3].
Take `c1ccc(N2CCN(C[C@H]3CC[C@H](Nc4ncccn4)CC3)CC2)cc1`: the Ki was found to be 41 nM in [1], 89 nM in [2] and 5.7 nM in assay [3].
`c1ccc(N2CCN(CC[C@H]3CC[C@@H](Nc4ncccn4)CC3)CC2)cc1` gave a Ki in [2] of 29 nM.
Consider `c1ccc(N2CCN(CC[C@H]3CC[C@H](Nc4ncnc5ccccc45)CC3)CC2)cc1`, for which the inhibition constant Ki in [1] amounted to 74 nM; in assay [2], 0.02 nM; in [3] it was 3.2 nM.
